Data from patent US11046657B2, “Pyrimidinone derivatives and uses thereof to neutralize the biological activity of chemokines” (Centre National de la Recherche Scientifique (CNRS), priority 2016, dated 2021).
≈ marks a conversion by molar mass, not a printed value. Entries after “also recorded” stand apart in the source; their conditions may differ. Like-named read-outs stand apart in the source and are kept apart here.

Key:
CXCR4-CXCL12 binding = target: T1, CXCR4-CXCL12 binding (Homo sapiens, UniProt P48061); assay: Inhibition of CXCL12-TR binding to CXCR4-GFP (FRET); conditions: 10 μM
T1 construct: expressed in transfected cells
Description: Study of the changes of CXCR4-CXCL12 binding was achieved by the energy transfer technique^10,11.
Binding of Texas red-labelled CXCL12 with CXCR4-GFP fused receptor^11 induces fluorescence resonance energy transfer (FRET), which can be monitored by the reduction of GFP fluorescence emission. The characterization of CXCL12 neutraligands was evaluated in two conditions, differing by the sequence of addition of molecules. Reduction of GFP fluorescence emission was more important when neutraligands were preincubated (30 min) […] prior to the addition to cells.
The CXCR4 antagonist, T134 (20 μM) was used as a control in both incubation protocols. Data obtained were consistent with a binding to the chemokine and not to its receptor. Consequently, all selected compounds are indeed CXCL12 chemokine neutraligands and behave as chalcone-4. The neutralizing properties of the compounds are thus confirmed.

[1] = Solubility in assay media; assay type: physicochemical
Description: Their solubility in assay media was evaluated. (2-Hydroxypropyl)-o-cyclodextrin (Cdx) was used as excipient because of its low toxicity and its capacity to increase bioavailability. […] The compound stability was evaluated in PBS only and in PBS/Cdx.

[2] = system: Balb/c mice sensitized to ovalbumin; assay: 8-day murine model of allergic eosinophilic airway inflammation; assay type: in vivo, mouse; conditions: for IC50 on eosinophil recruitment: intranasal, 2 h before each challenge, in PBS/Cdx, bronchoalveolar lavage 24 h after last challenge
Description: In vivo dose-response effect of a topical treatment with chalcone-4 and compound (1) of formula (I) in an 8-day mouse model of allergic eosinophilic airway inflammation. Balb/c mice were sensitized to ovalbumin (OVA, 50 μg) in the presence of 2 mg alum (IP. injection on days 0, 1 and 2) and challenged with OVA (10 μg) or saline (IN.) on days 6, 7 and 8. Increasing doses of chalcone-4 (gray line) or compound (1) (black line) solubilized in 10% hydroxypropyl-B-cyclodextrine (Cdx) were administered by the intranasal route 2 h before each challenge. Bronchoalveolar lavage was performed 24 h after the last challenge, and inflammatory cells including eosinophils counted. The percentage of inhibition of eosinophil recruitment is shown. Data points are means and bars are S.E.M. values of n=6 determinations.
The in vivo activity of compound (1) was tested in the 8-day murine model of allergic eosinophilic airway inflammation previously described^13.
Briefly, Balb/c mice were sensitized to ovalbumin (OVA) and challenged 3 times with OVA or saline at 24 h interval. Treatments with each compound (300 nmol/kg in 10% PBS/Cdx) were administered by the intranasal route 2 h before each challenge. Bronchoalveolar lavage was performed 24 h after the last challenge, and eosinophil, macrophage, neutrophil and lymphocyte numbers quantified.
Using the same protocol, the dose-response of compound (1) and chalcone-4 was evaluated on eosinophil recruitment after intranasal administration (FIG. 1).

[3] = system: Balb/c mice sensitized to ovalbumin; conditions: mouse model of airway allergic eosinophilic inflammation; cited from earlier work
CXCL12 to CXCR4 = CXCL12 to CXCR4 (Homo sapiens, UniProt P48061); conditions: cited from earlier work
CXCL12 to CXCR7 = CXCL12 to CXCR7 (Homo sapiens, UniProt P48061); conditions: cited from earlier work
[4] = system: human peripheral blood CD4+ lymphocytes; conditions: cited from earlier work
CXCR4 = conditions: cited from earlier work
CCL17 = target: T2, CCL17 (Homo sapiens, UniProt Q92583); assay: Selectivity towards chemokine CCL17; conditions: 5 μM
T2 sequence (Q92583 24-94): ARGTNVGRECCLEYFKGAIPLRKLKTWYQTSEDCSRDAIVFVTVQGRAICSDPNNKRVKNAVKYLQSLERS
Description: (§1) Furthermore, the selectivity of (1) was also evaluated towards two other chemokines, namely CCL17 and CCL22, with no activity at 5 μM (data not shown).

CCL22 = target: T3, CCL22 (Homo sapiens, UniProt O00626); assay: Selectivity towards chemokine CCL22; conditions: 5 μM
T3 sequence (O00626 25-93): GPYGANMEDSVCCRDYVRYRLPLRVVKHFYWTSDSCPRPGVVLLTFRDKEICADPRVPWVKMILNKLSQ
Description: as §1

C57BL/6J mice = assay: Fentanyl-induced hyperalgesia, tail immersion test
[5] = PBS with (2-hydroxypropyl)-cyclodextrin (Cdx) 10% w/w, aqueous with cosolvent or surfactant or cyclodextrin, PBS/Cdx (10% w/w), read-out: Solubility PBS/Cdx
[6] = PBS, aqueous buffer, read-out: Solubility PBS

T1 sequence (P48061 22-89 limits assumed): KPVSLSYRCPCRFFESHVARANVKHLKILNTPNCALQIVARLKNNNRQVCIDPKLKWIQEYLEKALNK
Chain of CXCL12 to CXCR4 (P48061 22-89 limits assumed): as above
Chain of CXCL12 to CXCR7 (P48061 22-89 limits assumed): as above

SMILES: COc1cc(/C=C/C(=O)c2ccc(Cl)cc2)ccc1O [Chalcone-4, (E)-1-(4-Chlorophenyl)-3-(4-hydroxy-3-methoxyphenyl)prop-2-en-1-one, reference compound]
- inhibition at 10 µM (CXCR4-CXCL12 binding; Table 3): 96 ± 2%
- solubility [1, 5]: > 300 µM
- solubility [1, 6]: 9 µM (≈ 2.6 µg/mL)
- IC50 on eosinophil recruitment [2]: higher than 500 nmol/kg
- Inflammatory infiltration, in particular of eosinophils [3]: inhibits inflammatory infiltration
- Binding of CXCL12 to CXCR4 (CXCL12 to CXCR4): inhibits
- Binding of CXCL12 to CXCR7 (CXCL12 to CXCR7): inhibits
- Chemotaxis of human peripheral blood CD4+ lymphocytes [4]: blocks chemotaxis
- CXCR4 internalization in response to CXCL12 (CXCR4): prevents CXCR4 internalization

SMILES: COc1cc(-c2cc(-c3ccc(Cl)cc3)nc(=O)[nH]2)ccc1O [compound (1), 4-(4-Chlorophenyl)-6-(4-hydroxy-3-methoxyphenyl)pyrimidin-2(1H)-one]
- inhibition at 10 µM (CXCR4-CXCL12 binding; Table 2): 92 ± 5%
- inhibition at 10 µM (CXCR4-CXCL12 binding; Table 3): 76 ± 5%
- inhibition at 10 µM (CXCR4-CXCL12 binding; Table 4): 76 ± 5%
- solubility [1, 5]: > 5000 µM
- solubility [1, 6]: 36.4 µM (≈ 12 µg/mL)
- Solubility compared with chalcone-4 ([1]; in words): better than the solubility of “chalcone-4”; also recorded: more soluble
- Recruitment of eosinophils ([2]; 300 nmol/kg, intranasal route, n=6): inhibits the recruitment of eosinophils
- IC50 on eosinophil recruitment [2]: 300 nmol/kg
- Activity towards CCL17 (CCL17): no activity
- Activity towards CCL22 (CCL22): no activity
- Secondary hyperalgesia induced by fentanyl (C57BL/6J mice; 10 mg/kg i.p., co-administered with fentanyl): completely prevented the development of secondary hyperalgesia
- Nociceptive threshold, compound alone (C57BL/6J mice; 50 mg/kg, i.p., without fentanyl): no effect on the nociceptive threshold
